Among the data in PubChem BioAssay (NCI) are GI50 and TGI values, retold here.

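Cultured in 96-well plates, cells were exposed to test compound for 48 hours across five concentrations. The concentration for 50% growth inhibition is given as GI50. TGI: total growth inhibition.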

Test systems include SF-295 CNS; RPMI-8226 leukemia; BT-549 breast; CCRF-CEM leukemia; DU-145 prostate; COLO 205 colon; OVCAR-8 ovarian; EKVX NSCLC; HCC-2998 colon; MOLT-4 leukemia.
What all share (experiment): inhibition of tumour cell growth, NCI panel, 48 h

On to `CS(=O)(=O)Nc1ccc(N=Cc2c(O)[nH]c3ccccc23)cc1`, for which the GI50 in the experiment on SF-295 CNS was over 25 µM; in the experiment on RPMI-8226 leukemia it was over 25 µM; in the experiment on BT-549 breast, over 25 µM; in the experiment on CCRF-CEM leukemia, over 20 µM; in the experiment with DU-145 prostate it was over 25 µM; with COLO 205 colon, over 25 µM. The GI50 in the experiment on OVCAR-8 ovarian, with EKVX NSCLC, in the experiment on HCC-2998 colon and in the experiment with MOLT-4 leukemia was over 25 µM each time. Moreover, the TGI in the experiment with SF-295 CNS, in the experiment with RPMI-8226 leukemia, in the experiment with BT-549 breast, in the experiment on CCRF-CEM leukemia, in the experiment with DU-145 prostate and in the experiment on COLO 205 colon was over 25 µM each time. Moreover, the TGI in the experiment with OVCAR-8 ovarian, in the experiment on EKVX NSCLC, with HCC-2998 colon and in the experiment on MOLT-4 leukemia was over 25 µM in each case.
For `Cc1ccc2c(c1)C(=O)c1c-2n(CCCBr)c(=O)c2cc([N+](=O)[O-])ccc12`, the GI50 in the experiment on SF-295 CNS is 73.8 µM; with RPMI-8226 leukemia, 19.2 µM; in the experiment on BT-549 breast, over 100 µM; in the experiment on CCRF-CEM leukemia, 5.29 µM; in the experiment on DU-145 prostate it was 49.8 µM; in the experiment on COLO 205 colon, 87.4 µM. Also, the GI50 is over 100 µM in the experiment with OVCAR-8 ovarian, over 100 µM in the experiment on EKVX NSCLC, 11.7 µM in the experiment on HCC-2998 colon and 26.6 µM with MOLT-4 leukemia. Moreover, the TGI in the experiment with SF-295 CNS was over 100 µM; in the experiment with RPMI-8226 leukemia, over 100 µM; in the experiment with BT-549 breast, over 100 µM; in the experiment with CCRF-CEM leukemia it was 46.4 µM; in the experiment on DU-145 prostate, over 100 µM; with COLO 205 colon it was over 100 µM. Besides, the TGI with OVCAR-8 ovarian was over 100 µM; in the experiment with EKVX NSCLC it was over 100 µM; with HCC-2998 colon, 77.6 µM; in the experiment with MOLT-4 leukemia it was over 100 µM.
Turning to `CN(C)CC1CCCCCC(CN(C)C)C1=O` (stereo not given), the GI50 with SF-295 CNS was 19.7 µM; with RPMI-8226 leukemia it was 3.15 µM; in the experiment with BT-549 breast, 3.46 µM; in the experiment with CCRF-CEM leukemia, 1.38 µM; with DU-145 prostate, 3.19 µM; with COLO 205 colon it was 1.2 µM. For the same molecule, the GI50 in the experiment with OVCAR-8 ovarian was 2.61 µM; with EKVX NSCLC it was 12.5 µM; in the experiment on HCC-2998 colon, 17.1 µM; in the experiment with MOLT-4 leukemia it was 2 µM. In addition, the TGI came to 47.2 µM with SF-295 CNS; 13.9 µM in the experiment with RPMI-8226 leukemia; 15.9 µM in the experiment with BT-549 breast; 3.87 µM in the experiment with CCRF-CEM leukemia; 12.4 µM with DU-145 prostate; 2.68 µM in the experiment on COLO 205 colon. Moreover, the TGI in the experiment on OVCAR-8 ovarian worked out at 8.54 µM; in the experiment with EKVX NSCLC, 37.3 µM; in the experiment on HCC-2998 colon it was 33.3 µM; in the experiment with MOLT-4 leukemia it was 5.51 µM.
As to `COCCNc1cc(NC(=O)N2CCCc3cc(CN4CCN(C)CC4=O)c(C=O)nc32)ncc1C#N`, the GI50 is over 50 µM in the experiment with SF-295 CNS; 42.4 µM in the experiment with RPMI-8226 leukemia; over 50 µM with BT-549 breast; over 50 µM in the experiment with CCRF-CEM leukemia; over 50 µM with DU-145 prostate; 27.2 µM with COLO 205 colon. The GI50 in the experiment on OVCAR-8 ovarian, with EKVX NSCLC, with HCC-2998 colon and in the experiment with MOLT-4 leukemia was over 50 µM throughout. Further, the TGI with SF-295 CNS, in the experiment on RPMI-8226 leukemia, in the experiment on BT-549 breast, with CCRF-CEM leukemia, in the experiment on DU-145 prostate and in the experiment on COLO 205 colon was over 50 µM throughout. Also, the TGI in the experiment on OVCAR-8 ovarian, in the experiment with EKVX NSCLC, in the experiment on HCC-2998 colon and with MOLT-4 leukemia was over 50 µM throughout.
Turning to `CC(C)c1ccc(Nc2nccc(-c3cnn4ncccc34)n2)cc1`, the GI50 with SF-295 CNS is 0.523 µM; in the experiment on RPMI-8226 leukemia it was 0.466 µM; in the experiment on BT-549 breast, 0.967 µM; in the experiment on CCRF-CEM leukemia, 0.703 µM; in the experiment on DU-145 prostate, 0.809 µM; in the experiment with COLO 205 colon, 0.306 µM. The GI50 with OVCAR-8 ovarian was 0.555 µM; in the experiment on EKVX NSCLC it was 0.64 µM; in the experiment on HCC-2998 colon, 0.635 µM; in the experiment with MOLT-4 leukemia, 0.888 µM. Further, the TGI with SF-295 CNS was 12.2 µM; in the experiment with RPMI-8226 leukemia it was 2.56 µM; in the experiment with BT-549 breast, over 25 µM; with CCRF-CEM leukemia, over 20.5 µM; with DU-145 prostate it was over 9.19 µM; with COLO 205 colon it was 0.704 µM. For the same molecule, the TGI was 3.74 µM in the experiment on OVCAR-8 ovarian, 10.2 µM in the experiment with EKVX NSCLC, over 10.2 µM with HCC-2998 colon and 4.19 µM with MOLT-4 leukemia.
As for `COc1cc(C2C3=C(COC3=O)Nc3cc4c(cc32)CCC4)cc2c1OCO2` (stereo not given), the GI50 was 0.0308 µM in the experiment on SF-295 CNS; 0.0531 µM with RPMI-8226 leukemia; 0.311 µM in the experiment on BT-549 breast; 0.0452 µM in the experiment on CCRF-CEM leukemia; 0.0411 µM in the experiment on DU-145 prostate; 0.0407 µM with COLO 205 colon. In addition, the GI50 is 0.0399 µM in the experiment on OVCAR-8 ovarian, 0.486 µM in the experiment with EKVX NSCLC, 0.26 µM in the experiment with HCC-2998 colon and 0.0496 µM with MOLT-4 leukemia. Further, the TGI in the experiment with SF-295 CNS is 10.8 µM; in the experiment on RPMI-8226 leukemia, over 49.2 µM; in the experiment with BT-549 breast, 42.2 µM; with CCRF-CEM leukemia it was 14.6 µM; in the experiment on DU-145 prostate, 0.296 µM; in the experiment with COLO 205 colon, 0.139 µM. Moreover, the TGI in the experiment on OVCAR-8 ovarian was found to be 1.99 µM; in the experiment with EKVX NSCLC it was 43.3 µM; in the experiment on HCC-2998 colon, 4.88 µM; in the experiment on MOLT-4 leukemia, 15.6 µM.
For `COc1ccc(-c2nn(-c3cccc(Cl)c3)cc2-c2cc(-c3ccccc3)nc(N)n2)cc1`, the GI50 in the experiment with SF-295 CNS was 3.12 µM; in the experiment with RPMI-8226 leukemia, 2.65 µM; with BT-549 breast, 4.31 µM; in the experiment on CCRF-CEM leukemia it was 2.13 µM; in the experiment on DU-145 prostate, 10.5 µM; in the experiment with COLO 205 colon, 2.09 µM. For the same molecule, the GI50 in the experiment on OVCAR-8 ovarian was 1.9 µM; in the experiment on EKVX NSCLC, 2.32 µM; in the experiment with HCC-2998 colon, 2.25 µM; in the experiment on MOLT-4 leukemia, 2.03 µM. Further, the TGI in the experiment on SF-295 CNS is 11.7 µM; in the experiment with RPMI-8226 leukemia, 9.17 µM; with BT-549 breast, 16.9 µM; in the experiment on CCRF-CEM leukemia, 6.63 µM; in the experiment with DU-145 prostate, 22.3 µM; in the experiment on COLO 205 colon, 3.81 µM. Further, the TGI in the experiment on OVCAR-8 ovarian came out at 3.78 µM; with EKVX NSCLC, 15 µM; in the experiment with HCC-2998 colon, 4.53 µM; in the experiment with MOLT-4 leukemia, 5.61 µM.
